For assay [1], the target named is T1, biotinylated wild-type menin and MLL-AF9 fusion protein (menin/MLL binding) (Homo sapiens, UniProt O00255).
T1 construct: made in house; host or cells: menin: E. coli; MLL-AF9-FLAG: HEK293 cells, used as cleared lysate
T1 sequence (O00255 1-610): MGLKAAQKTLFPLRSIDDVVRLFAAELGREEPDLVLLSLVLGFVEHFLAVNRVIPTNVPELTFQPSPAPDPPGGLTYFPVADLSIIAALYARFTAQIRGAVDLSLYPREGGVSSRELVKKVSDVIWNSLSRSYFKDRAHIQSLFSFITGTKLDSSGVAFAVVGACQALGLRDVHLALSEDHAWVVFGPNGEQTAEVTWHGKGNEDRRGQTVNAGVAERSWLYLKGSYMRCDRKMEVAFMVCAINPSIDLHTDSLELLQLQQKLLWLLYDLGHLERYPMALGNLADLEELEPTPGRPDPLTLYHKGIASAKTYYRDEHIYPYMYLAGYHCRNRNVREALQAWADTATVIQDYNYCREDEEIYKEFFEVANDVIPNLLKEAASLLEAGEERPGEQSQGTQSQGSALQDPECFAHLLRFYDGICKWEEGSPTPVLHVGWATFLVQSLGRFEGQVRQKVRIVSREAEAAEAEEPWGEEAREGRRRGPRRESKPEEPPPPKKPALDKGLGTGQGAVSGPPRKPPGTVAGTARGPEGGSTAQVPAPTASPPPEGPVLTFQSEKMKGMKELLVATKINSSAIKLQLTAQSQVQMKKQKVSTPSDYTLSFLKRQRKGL
Kind of assay: Assay 1: menin/MLL binding AlphaLISA assay, wild-type menin. To be noted: Table 30; column head does not say wild-type or mutated menin. A digest of the protocol:
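Compound was preincubated 30 min at room temperature with biotinylated menin (5 nM) and MLL-AF9-FLAG lysate from HEK293 cells, pH 7.4 buffer with 5% DMSO and DTT. Bead-based Alpha signal after 60 min with streptavidin donor and anti-FLAG acceptor beads; four-parameter logistic fit gave IC50.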
(In Alpha technology, singlet oxygen from a donor bead excites a nearby acceptor bead.)

The subject of assay [2] is human acute monocytic leukemia cell line MV-4-11. The assay is described as follows: Assay 2: cell proliferation assay (ATP quantitation, CellTiter-Glo), MV-4-11. Format: cell-based. To be noted: Homo sapiens, MV4-11, 72 h, MV-4-11 cells. In outline: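 MV-4-11 cells, 1.67×10^4 per well in medium with 10% FBS, were exposed to compound for 72 h at 37° C., 5% CO2; HL-60 cells served as toxicity control. Proliferation read as ATP content by CellTiter-Glo luminescence.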
For orientation: In ATP-based viability assays light output follows the ATP content of the culture.

Each structure is given as a SMILES string. A value given as a limit tells only on which side of the number the result lay.

Usually IC50 stands for the concentration that gives 50% inhibition. Lower therefore signals higher potency. As a reminder, the EC50 is the concentration giving half of the maximal effect. `CCN(C(=O)C(C)C)c1cc(F)ccc1Oc1cncnc1N1CC2(CCN(CC3CCCCC3)C2)C1` [Example 158, N-(2-((4-(6-(cyclohexylmethyl)-2,6-diazaspiro[3.4]octan-2-yl)pyrimidin-5-yl)oxy)-5-fluorophenyl)-N-ethylisobutyramide]: the IC50 in assay [1] is below 100 nM. Further, the EC50 in assay [2] lay in the range of 100 to 1000 nM.
For `CC(C)(C)OC(=O)N[C@H]1CC[C@H](CCN2CC3(C2)CN(c2ncncc2Oc2ccc(F)cc2-c2ccc(C#N)cc2C2CC2)C3)CC1` [Example 189, tert-butyl ((1r,4r)-4-(2-(6-(5-((4′-cyano-2′-cyclopropyl-5-fluoro-[1,1′-biphenyl]-2-yl)oxy)pyrimidin-4-yl)-2,6-diazaspiro[3.3]heptan-2-yl)ethyl)cyclohexyl) carbamate] the same measures were below 100 nM and 100 to 1000 nM.
The like results for `CC(C)n1nccc1-c1cc(F)ccc1Oc1cncnc1N1CC2(CC(NCc3ccc(C#N)cc3)CO2)C1` (stereo not drawn) [Example 233, 4-(((2-(5-(4-fluoro-2-(1-isopropyl-1H-pyrazol-5-yl)phenoxy)pyrimidin-4-yl)-5-oxa-2-azaspiro[3.4]octan-7-yl)amino)methyl) benzonitrile] were, in that order, below 100 nM and 100 to 1000 nM.
For `CC(C)c1ccccc1-c1cc(F)ccc1Oc1cncnc1N1CCC2(CCN(C[C@H]3CC[C@H](NC(=O)OC(C)(C)C)CC3)C2)C1` (stereo partly drawn) [Example 220, tert-butyl ((1r,4r)-4-((7-(5-((5-fluoro-2′-isopropyl-[1,1′-biphenyl]-2-yl)oxy)pyrimidin-4-yl)-2,7-diazaspiro[4.4]nonan-2-yl)methyl)cyclohexyl) carbamate] the same measures were below 100 nM and 100 to 1000 nM.
As for `COc1cc(F)ccc1Oc1cncnc1N1CCC2(CCN(Cc3ccc4[nH]c(=O)[nH]c4c3)C2)C1` (stereo not drawn) [Example 209, 5-((7-(5-(4-fluoro-2-methoxyphenoxy)pyrimidin-4-yl)-2,7-diazaspiro[4.4]nonan-2-yl)methyl)-1,3-dihydro-2H-benzo[d]imidazol-2-one], the IC50 in assay [1] is below 100 nM. For the same compound, the EC50 in assay [2] was 100 to 1000 nM.
The like results for `CC(C)N(C(=O)c1cc(F)ccc1Oc1cncnc1N1CC2(CCN(CC(C)(C)O)CC2)C1)C(C)C` [Example 89, 5-fluoro-2-((4-(7-(2-hydroxy-2-methylpropyl)-2,7-diazaspiro[3.5]nonan-2-yl)pyrimidin-5-yl)oxy)-N,N-diisopropylbenzamide] were, in that order, below 100 nM and 100 to 1000 nM.
The like results for `CCN(C(=O)C(C)C)c1cc(F)ccc1Oc1cncnc1N1CC2(CCN(CC3CCC(F)(F)CC3)C2)C1` [Example 137, N-(2-((4-(6-((4,4-difluorocyclohexyl)methyl)-2,6-diazaspiro[3.4]octan-2-yl)pyrimidin-5-yl)oxy)-5-fluorophenyl)-N-ethylisobutyramide] were, in that order, below 100 nM and 100 to 1000 nM.
The like results for `NC(=O)c1ccc(-c2cc(F)ccc2Oc2cncnc2N2CCC3(CCN(Cc4ccc5[nH]c(=O)[nH]c5c4)C3)C2)c(C2CC2)c1` (stereo not drawn) [Example 43, 2-cyclopropyl-5′-fluoro-2′-((4-(7-((2-oxo-2,3-dihydro-1H-benzo[d]imidazol-5-yl)methyl)-2,7-diazaspiro[4.4]nonan-2-yl)pyrimidin-5-yl)oxy)-[1,1′-biphenyl]-4-carboxamide] were, in that order, below 100 nM and below 100 nM.
`CC(C)c1ccccc1-c1cc(F)ccc1Oc1cncnc1N1CCC2(CCN(Cc3ccc4[nH]c(=O)[nH]c4c3)C2)C1` (stereo not drawn) [Example 41, 5-((7-(5-((5-fluoro-2′-isopropyl-[1,1′-biphenyl]-2-yl)oxy)pyrimidin-4-yl)-2,7-diazaspiro[4.4]nonan-2-yl)methyl)-1H-benzo[d]imidazol-2(3H)-one] gave an IC50 in assay [1] below 100 nM. In addition, the EC50 in assay [2] was below 100 nM.
`CC1(C)C(=O)Nc2cc(CN3CCC4(CCN(c5ncncc5Oc5ccc(F)cc5-c5ccc(C#N)cc5C5CC5)C4)C3)ccc21` (stereo not drawn) [Example 205, 2-cyclopropyl-2′-((4-(7-((3,3-dimethyl-2-oxoindolin-6-yl)methyl)-2,7-diazaspiro[4.4]nonan-2-yl)pyrimidin-5-yl)oxy)-5′-fluoro-[1,1′-biphenyl]-4-carbonitrile] came in with an IC50 in assay [1] below 100 nM. In addition, the EC50 in assay [2] was below 100 nM.
In turn, `CC(C)N(C(=O)c1cc(F)ccc1Oc1cncnc1N1CCC2(CCN(Cc3ccc4c(c3)NC(=O)C4(C)C#N)C2)C1)C(C)C` (stereo not drawn) [Example 90, 2-((4-(7-((3-cyano-3-methyl-2-oxoindolin-6-yl)methyl)-2,7-diazaspiro[4.4]nonan-2-yl)pyrimidin-5-yl)oxy)-5-fluoro-N,N-diisopropylbenzamide] showed an IC50 in assay [1] below 100 nM. In addition, in assay [2], the EC50 is below 100 nM.
For the compound `CC(=O)NC(c1cc(F)ccc1Oc1cncnc1N1CCC2(CCN(Cc3ccc4[nH]c(=O)[nH]c4c3)C2)C1)C1CCCC1` (stereo not drawn) [Example 9, N-(cyclopentyl(5-fluoro-2-((4-(7-((2-oxo-2,3-dihydro-1H-benzo[d]imidazol-5-yl)methyl)-2,7-diazaspiro[4.4]nonan-2-yl)pyrimidin-5-yl)oxy)phenyl)methyl)acetamide], in assay [1], the IC50 was below 100 nM. The compound also had an EC50 in assay [2] of at least 1000 nM.
On to `CC(C)N(C(=O)c1cc(F)ccc1Oc1cncnc1N1CC2(CCN(C(=O)CCc3ccc(F)cc3)C2)C1)C(C)C` [Example 12, 5-fluoro-2-((4-(6-(3-(4-fluorophenyl)propanoyl)-2,6-diazaspiro[3.4]octan-2-yl)pyrimidin-5-yl)oxy)-N,N-diisopropylbenzamide], for which the IC50 in assay [1] was below 100 nM. Besides, in assay [2], the EC50 lay in the range of 100 to 1000 nM.
For `CC(C)N(C(=O)c1cc(F)ccc1Nc1cncnc1N1CCC2(CC1)CN(C1CCC(NS(C)(=O)=O)CC1)C2)C(C)C` (single isomer, unassigned) [Example 248A, 5-fluoro-N,N-diisopropyl-2-((4-(2-(4-(methylsulfonamido)cyclohexyl)-2,7-diazaspiro[3.5]nonan-7-yl)pyrimidin-5-yl)amino) benzamide] the same measures were below 100 nM and 100 to 1000 nM.
`CC(C)c1ncncc1-c1cc(F)ccc1Oc1cncnc1N1CCC2(CCN(CC(C)(C)O)C2)C1` (stereo not drawn) [Example 176, 1-(7-(5-(4-fluoro-2-(4-isopropylpyrimidin-5-yl)phenoxy)pyrimidin-4-yl)-2,7-diazaspiro[4.4]nonan-2-yl)-2-methylpropan-2-ol]: in assay [1], the IC50 is below 100 nM. The compound further showed an EC50 in assay [2] of at least 1000 nM.
Turning to `CC(CO)c1ccccc1-c1cc(F)ccc1Oc1cncnc1N1CCC2(CCN(Cc3ccc4[nH]c(=O)[nH]c4c3)C2)C1` (stereo not drawn) [Example 69, 5-((7-(5-((5-fluoro-2′-(1-hydroxypropan-2-yl)-[1,1′-biphenyl]-2-yl)oxy)pyrimidin-4-yl)-2,7-diazaspiro[4.4]nonan-2-yl)methyl)-1H-benzo[d]imidazol-2(3H)-one], the IC50 in assay [1] was below 100 nM. Besides, the EC50 in assay [2] was below 100 nM.
For the compound `CC(C)c1ncncc1-c1cc(F)ccc1Oc1cncnc1N1CC2(CCC(NC(C)(C)C)C2)C1` (stereo not drawn) [Example 96, N-(tert-butyl)-2-(5-(4-fluoro-2-(4-isopropylpyrimidin-5-yl)phenoxy)pyrimidin-4-yl)-2-azaspiro[3.4]octan-6-amine], in assay [1], the IC50 was below 100 nM. This compound had an EC50 in assay [2] of 100 to 1000 nM.
For `CC(C)c1ncncc1-c1cc(F)ccc1Oc1cncnc1N1CC2(CC(N(C)Cc3ccc(C#N)cc3)CO2)C1` (stereo not drawn) [Example 181, 4-(((2-(5-(4-fluoro-2-(4-isopropylpyrimidin-5-yl)phenoxy)pyrimidin-4-yl)-5-oxa-2-azaspiro[3.4]octan-7-yl)(methyl)amino)methyl)benzonitrile] the same measures were below 100 nM and 100 to 1000 nM.
The like results for `CC(C)c1ccccc1-c1cc(F)ccc1Oc1cncnc1N1CC2(CN(C(=O)Cc3ccc(S(C)(=O)=O)cc3)C2)C1` [Example 229, 1-(6-(5-((5-fluoro-2′-isopropyl-[1,1′-biphenyl]-2-yl)oxy)pyrimidin-4-yl)-2,6-diazaspiro[3.3]heptan-2-yl)-2-(4-(methylsulfonyl)phenyl)ethan-1-one] were, in that order, below 100 nM and 100 to 1000 nM.
The like results for `CC(C)N(C(=O)c1cc(F)ccc1Oc1cncnc1N1CC2(CCN(C(=O)Cc3ccc(C#N)cc3)C2)C1)C(C)C` [Example 113, 2-((4-(6-(2-(4-cyanophenyl)acetyl)-2,6-diazaspiro[3.4]octan-2-yl)pyrimidin-5-yl)oxy)-5-fluoro-N,N-diisopropylbenzamide] were, in that order, below 100 nM and below 100 nM.
Compound `CC(C)c1ccccc1-c1cc(F)c(F)cc1Oc1cncnc1N1CCC2(CCN(Cc3ccc4[nH]c(=O)[nH]c4c3)C2)C1` (stereo not drawn) [Example 47, 5-((7-(5-((4,5-difluoro-2′-isopropyl-[1,1′-biphenyl]-2-yl)oxy)pyrimidin-4-yl)-2,7-diazaspiro[4.4]nonan-2-yl)methyl)-1H-benzo[d]imidazol-2(3H)-one] yielded an IC50 in assay [1] below 100 nM. This compound also registered an EC50 in assay [2] of 100 to 1000 nM.
